Results reported in patent US12662478B2, “ATF6 modulators and uses thereof” (Altos Labs, Inc., priority 2019, dated 2026).

Molecular target: T1, ATF6 (Homo sapiens, UniProt P18850)
T1 construct: endogenous in cells; host or cells: U2-OS (ATCC HTB-96) stably transduced with the Cignal Lenti ATF6 luc reporter (Qiagen #CLS-6031L)
T1 sequence (P18850 1-670): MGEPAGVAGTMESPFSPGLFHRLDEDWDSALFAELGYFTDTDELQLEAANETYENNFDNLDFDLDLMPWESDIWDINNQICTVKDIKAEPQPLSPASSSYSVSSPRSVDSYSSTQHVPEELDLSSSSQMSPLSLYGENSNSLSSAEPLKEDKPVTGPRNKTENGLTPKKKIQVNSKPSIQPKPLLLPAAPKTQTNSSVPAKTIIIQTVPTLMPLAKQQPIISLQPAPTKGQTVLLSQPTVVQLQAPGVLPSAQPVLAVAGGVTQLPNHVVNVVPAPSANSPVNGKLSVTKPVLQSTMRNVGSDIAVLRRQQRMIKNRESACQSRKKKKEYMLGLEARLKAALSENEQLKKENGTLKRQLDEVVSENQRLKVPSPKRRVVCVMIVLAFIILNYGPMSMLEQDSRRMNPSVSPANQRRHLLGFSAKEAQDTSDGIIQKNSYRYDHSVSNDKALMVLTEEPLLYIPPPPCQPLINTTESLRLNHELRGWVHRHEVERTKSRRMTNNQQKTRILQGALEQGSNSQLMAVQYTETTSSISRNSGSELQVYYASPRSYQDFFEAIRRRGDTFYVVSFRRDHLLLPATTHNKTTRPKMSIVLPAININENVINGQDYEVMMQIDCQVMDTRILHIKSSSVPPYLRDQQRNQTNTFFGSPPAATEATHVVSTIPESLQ
Assay: ERSE ATF6-luciferase assay in presence of Tg-induced ER stress (U2-OS ATF6 TRE-luciferase reporter cells)
Format: cell-based
Details: in presence of ER stress (thapsigargin), Tg only = 100%; for ATF6 activity @ 1 μM [%] / activity at 1 µM: 1 μM test compound; for ATF6 activity @ 1 μM [%] / ATF6 activity @ 10 μM [%]: 8 hr; for ATF6 activity @ 10 μM [%] / activity at 10 µM: 10 μM test compound; for activity at 1 µM / activity at 10 µM: U2OS, 8 h
Procedure: To understand how exemplary compounds of the invention modulate the activity of ATF6 in absence or presence of endoplasmic reticulum (ER) stress, a Human bone osteosarcoma (U2-OS)-based TRE-luciferase reporter stable cell line was generated to determine the modulation of transcription of ATF6 target genes.
U2-OS cells were obtained from the American Type Culture Collection (ATCC HTB-96, ATCC Manassas, VA) and were cultured with growing medium containing Dulbecco's Modified Eagle's Medium (DMEM) (Cat. No.: SH30023.02, HyClone) supplemented with fetal bovine serum (FBS) 10% (Cat. No.: 16000044, Gibco) and 1% penicillin-streptomycin antibiotic cocktail (Cat. No.: SV30010, Hyclone).
Cignal Lenti ATF6 luc reporter (Qiagen #CLS-6031L) was used to produce a stable cell line in U2-OS cells (U2-OS ATF6 TRE-luciferase reporter). The lenti ATF6 reporter is a preparation of replication incompetent, VSV-g pseudotyped lentivirus particles expressing the firefly luciferase gene under the control of a minimal (m)CMV promoter and tandem repeats of the ATF6 transcriptional response element (TRE). The number of response elements as well as the intervening sequence between response elements has been experimentally optimized to maximize the signal to noise ratio.
Exemplary compounds of the invention and reference compounds were prepared from powder as 10 mM stock solutions in dimethyl sulfoxide (DMSO; Cat. No. #D2650, Sigma Aldrich) and stored at −80° C. in presence of N2 neutral atmosphere.
For the primary screening, 40,000 U2-OS ATF6 TRE-luciferase reporter cells were plated in poly-D-lysine (Cat. No.: P2636, Sigma) pre-coated white 96-well plates (Thermo Scientific Nunc #136101) with 100 μL of growing medium. Cells were incubated in humidified chambers for 24 hr.
For testing exemplary compounds in presence of ER-stress, cells were pre-treated for 30 min with 50 μL growing medium containing either vehicle (DMSO), 1 or 10 μM test compound. After this pre-incubation, 50 μL of a solution containing 0.2 μM of the ER stress-inducer thapsigargin (Tg) was added to the appropriate wells. The Tg solution also contains vehicle or test compounds at 1 or 10 μM as indicated. The final concentration of DMSO in each well was kept at 0.3%. Plates were incubated for 8 hr in humidified chambers.
After the 8 hr incubation, plates were cooled down to room temperature for 10 min prior to the luciferase assays. Luciferase reactions were performed using Luciferase Assay System (Cat. No.: E4550, Promega). Briefly, each well was washed with 100 μl of PBS 1× and, then, 20 μl of lysis reagent was added into each well. Plates were shaken for 10 min and, then, 50 μl of Luciferase Assay Reagent was added to each well. Luminescence was determined by integration of 1 s with a gain of 110 in a Synergy 4 Microplate reader. All measurements were carried out in triplicate.
The average activity determined from the wells containing vehicle only (DMSO, 0% of ATF6 activity) was used as blank and subtracted from the rest of measurements. The average activity determined from the wells containing Tg only was used as 100% of ATF6 activity. The percentage of modulation of exemplary compounds was calculated by normalizing values to potential maximal activation with Tg.
ATF6 activities of exemplary compounds at 1 and 10 μM in presence Tg-induced ER stress tested in the U2-OS ATF6 TRE-luciferase reporter cells were determined and are shown in Table 2-2 and Table 3-2.

Row | SMILES | ATF6 activity @ 1 μM [%] (Table 2-2) | ATF6 activity @ 10 μM [%] (Table 2-2) | activity at 1 µM (Table 2-2) | activity at 10 µM (Table 2-2) | ATF6 activity @ 1 μM [%] (Table 2-3) | ATF6 activity @ 10 μM [%] (Table 2-3)
1 | CC(c1ccc(C(F)(F)F)cc1C(F)(F)F)n1cc(/C=C\c2nnc(-c3ccccn3)s2)cn1 (stereo not drawn) [Compound 2-8, (Z)-2-(2-(1-(1-(2,4-bis(trifluoromethyl)phenyl)ethyl)-1H-pyrazol-4-yl)vinyl)-5-(pyridin-2-yl)-1,3,4-thiadiazole] | + (+ refers to 100% < % activity < 125% at 1 or 10 μM) | −− (−− refers to 50% < % activity < 75% at 1 or 10 μM test compound) | – | – | – | –
2 | CC(c1ccc(C(F)(F)F)cc1C(F)(F)F)n1cc(C#Cc2nnc(-c3cnccn3)s2)cn1 (single isomer, unassigned) [Compound 2-22, 2-((1-(1-(2,4-bis(trifluoromethyl)phenyl)ethyl)-1H-pyrazol-4-yl)ethynyl)-5-(pyrazin-2-yl)-1,3,4-thiadiazole] | −− (−− refers to 50% < % activity < 75% at 1 or 10 μM test compound) | − (− refers to 75% < % activity < 100% at 1 or 10 μM) | – | – | – | –
3 | Cc1nn(C(C)c2ccc(C(F)(F)F)cc2C(F)(F)F)cc1C#Cc1nnc(-c2ccccn2)s1 (stereo not drawn) [Compound 2-11, 2-((1-(1-(2,4-bis(trifluoromethyl)phenyl)ethyl)-3-methyl-1H-pyrazol-4-yl)ethynyl)-5-(pyridin-2-yl)-1,3,4-thiadiazole] | – | – | 50 to 75% | 50 to 75% | – | –
4 | Cc1nn(C(C)c2ccc(C(F)(F)F)cc2C(F)(F)F)cc1C#Cc1nnc(-c2ccccn2)s1 (single isomer, unassigned) [Compound 2-23, 2-((1-(1-(2,4-bis(trifluoromethyl)phenyl)ethyl)-3-methyl-1H-pyrazol-4-yl)ethynyl)-5-(pyridin-2-yl)-1,3,4-thiadiazole] | − (− refers to 75% < % activity < 100% at 1 or 10 μM) | – | – | 50 to 75% | – | –
5 | CC(c1ccc(C(F)(F)F)cc1C(F)(F)F)n1cc(/C=C/c2nnc(-c3ccccn3)s2)cn1 (stereo not drawn) [Compound 2-5, (E)-2-(2-(1-(1-(2,4-bis(trifluoromethyl)phenyl)ethyl)-1H-pyrazol-4-yl)vinyl)-5-(pyridin-2-yl)-1,3,4-thiadiazole] | – | – | 100 to 125% | < 50% | – | –
6 | Cc1nn(C(C)c2ccc(C(F)(F)F)cc2C(F)(F)F)cc1C#Cc1nnc(-c2ccccn2)s1 (single isomer, unassigned) [Compound 2-24, 2-((1-(1-(2,4-bis(trifluoromethyl)phenyl)ethyl)-3-methyl-1H-pyrazol-4-yl)ethynyl)-5-(pyridin-2-yl)-1,3,4-thiadiazole] | −−− (−−− refers to <50% at 1 or 10 μM test compound) | −−− (−−− refers to <50% at 1 or 10 μM test compound) | – | – | – | –
7 | CC(c1ccc(C(F)(F)F)cc1C(F)(F)F)n1cc(C#Cc2nnc(-c3ccccn3)s2)cn1 (stereo not drawn) [Compound 2-2, 2-((1-(1-(2,4-bis(trifluoromethyl)phenyl)ethyl)-1H-pyrazol-4-yl)ethynyl)-5-(pyridin-2-yl)-1,3,4-thiadiazole] | – | – | < 50% | < 50% | – | –
8 | CC(c1ccc(C(F)(F)F)cc1C(F)(F)F)n1cc(C#Cc2nnc(-c3cnccn3)s2)cn1 (stereo not drawn) [Compound 2-10, 2-((1-(1-(2,4-bis(trifluoromethyl)phenyl)ethyl)-1H-pyrazol-4-yl)ethynyl)-5-(pyrazin-2-yl)-1,3,4-thiadiazole] | – | – | 50 to 75% | 75 to 100% | – | –
9 | FC(F)(F)c1ccc(Cn2cc(C#Cc3nnc(-c4ccccn4)s3)cn2)c(C(F)(F)F)c1 [Compound 2-4, 2-((1-(2,4-bis(trifluoromethyl)benzyl)-1H-pyrazol-4-yl)ethynyl)-5-(pyridin-2-yl)-1,3,4-thiadiazole] | – | – | 50 to 75% | 75 to 100% | – | –
10 | O=C(Nc1cnn(Cc2ccc(C(F)(F)F)cc2C(F)(F)F)c1)c1cc(-c2ccco2)on1 [Ceapin-A7, reference compound] | −−− (−−− refers to <50% at 1 or 10 μM test compound) | −−− (−−− refers to <50% at 1 or 10 μM test compound) | – | – | −−− (−−− refers to <50% at 1 or 10 μM test compound) | −−− (−−− refers to <50% at 1 or 10 μM test compound)
11 | CC(c1ccc(C(F)(F)F)cc1C(F)(F)F)n1cc(/C=C\c2nnc(-c3ccccn3)s2)cn1 (stereo not drawn) [Compound 2-7, (Z)-2-(2-(1-(1-(2,4-bis(trifluoromethyl)phenyl)ethyl)-1H-pyrazol-4-yl)vinyl)-5-(pyridin-2-yl)-1,3,4-thiadiazole] | + (+ refers to 100% < % activity < 125% at 1 or 10 μM) | − (− refers to 75% < % activity < 100% at 1 or 10 μM) | – | – | – | –
12 | CC(c1ccc(C(F)(F)F)cc1C(F)(F)F)n1cc(/C=C\c2nnc(-c3ccccn3)s2)cn1 (stereo not drawn) [Compound 2-6, (Z)-2-(2-(1-(1-(2,4-bis(trifluoromethyl)phenyl)ethyl)-1H-pyrazol-4-yl)vinyl)-5-(pyridin-2-yl)-1,3,4-thiadiazole] | – | −− (−− refers to 50% < % activity < 75% at 1 or 10 μM test compound) | 100 to 125% | – | – | –
13 | CC(c1ccc(C(F)(F)F)cc1C(F)(F)F)n1cc(C#Cc2nnc(-c3ccccn3)s2)cn1 (stereo not drawn) [Compound 2-1, 2-((1-(1-(2,4-bis(trifluoromethyl)phenyl)ethyl)-1H-pyrazol-4-yl)ethynyl)-5-(pyridin-2-yl)-1,3,4-thiadiazole] | −− (−− refers to 50% < % activity < 75% at 1 or 10 μM test compound) | −−− (−−− refers to <50% at 1 or 10 μM test compound) | – | – | – | –
14 | CC(c1ccc(C(F)(F)F)cc1C(F)(F)F)n1cc(C#Cc2nnc(-c3cnccn3)s2)cn1 (single isomer, unassigned) [Compound 2-21, 2-((1-(1-(2,4-bis(trifluoromethyl)phenyl)ethyl)-1H-pyrazol-4-yl)ethynyl)-5-(pyrazin-2-yl)-1,3,4-thiadiazole] | − (− refers to 75% < % activity < 100% at 1 or 10 μM) | – | – | 75 to 100% | – | –
